Source: ChEMBL document CHEMBL5244219, “Recent developments of quinolone-based derivatives and their activities against Escherichia coli” (Eur J Med Chem, 2018)
In brackets after ≈: the same amount, converted by molar mass. Each block holds one compound with its values, some of them ahead of it.

Columns and labels:
Assay type in all cases: functional
Escherichia coli [1] = assay: Antibacterial activity against Escherichia coli NIHJ JC-2 assessed as bacterial growth inhibition measured after 24 hrs by agar dilution method
Escherichia coli [2] = assay: Antibacterial activity against Escherichia coli 2010-29 assessed as bacterial growth inhibition measured after 24 hrs by agar dilution method
Escherichia coli [3] = assay: Antibacterial activity against Escherichia coli NIHJ assessed as bacterial growth inhibition measured after 24 hrs by agar dilution method
Escherichia coli [4] = assay: Antibacterial activity against Escherichia coli 2010-05 assessed as bacterial growth inhibition measured after 24 hrs by agar dilution method
Escherichia coli [5] = assay: Antibacterial activity against Escherichia coli KC-14 infected in po dosed mouse assessed as bacterial growth inhibition; details: Escherichia coli, KC-14, po, read-out: ED50
Escherichia coli [6] = assay: Antibacterial activity against Escherichia coli assessed as bacterial growth inhibition incubated for 16 to 24 hrs by absorbance analysis; details: time 16-24 hrs
Escherichia coli [7] = assay: Antibacterial activity against Escherichia coli ATCC 8739 assessed as bacterial growth inhibition incubated for 24 hrs by two-serial dilution method
Escherichia coli [8] = assay: Antibacterial activity against Escherichia coli NCTC 10418 assessed as bacterial growth inhibition incubated for 18 to 20 hrs by agar dilution method; details: time 18-20 hrs
Escherichia coli [9] = assay: Antibacterial activity against Escherichia coli assessed as bacterial growth inhibition incubated for 18 to 20 hrs by agar dilution method; details: time 18-20 hrs
Escherichia coli [10] = assay: Antibacterial activity against Escherichia coli MTCC 739 assessed as bacterial growth inhibition incubated for 24 hrs by spectrophotometric method
Escherichia coli [11] = assay: Antibacterial activity against Escherichia coli assessed as zone of inhibition at 500 to 1000 ug per disc; details: dose 500-1000 µg
Escherichia coli [12] = assay: Antibacterial activity against Escherichia coli assessed as bacterial growth inhibition by microdilution method
Escherichia coli [13] = assay: Antibacterial activity against Escherichia coli assessed as bacterial growth inhibition measured after 24 hrs by broth micro dilution method

- MIC (Escherichia coli [1]): 0.008 mg/L (≈ 0.0167 µM)
- MIC (Escherichia coli [2]): 1 mg/L (≈ 2.09 µM)
- MIC (Escherichia coli [3]): 0.008 mg/L (≈ 0.0167 µM)
- MIC (Escherichia coli [4]): 1 mg/L (≈ 2.09 µM)
Structure (SMILES): CCNC1CN(c2c(F)cc3c(=O)c(C(=O)O)cn(-c4cc(N)c(F)cc4CO)c3c2Cl)C1

- MIC (Escherichia coli [1]): 0.008 mg/L (≈ 0.0177 µM)
- MIC (Escherichia coli [2]): 1 mg/L (≈ 2.21 µM)
- MIC (Escherichia coli [3]): 0.008 mg/L (≈ 0.0177 µM)
- MIC (Escherichia coli [4]): 1 mg/L (≈ 2.21 µM)
Structure (SMILES): Nc1cc(-n2cc(C(=O)O)c(=O)c3cc(F)c(N4CC(O)C4)c(Cl)c32)c(CO)cc1F

Structure (SMILES): CCOC(=O)c1c2n(c3cc(N4CCN(C(C)=O)CC4)c(F)cc3c1=O)C(C)S2 (stereo not given)
- ED50 (Escherichia coli [5]): 0.89 mg/kg

- MIC (Escherichia coli [6]): 8.97 mg/L (≈ 30.3 µM)
Structure (SMILES): Cc1[nH]c2ccc(Br)cc2c(=O)c1CC(=O)O

- MIC (Escherichia coli [7]): > 3 mg/L
Structure (SMILES): O=C(O)c1cn(C2CC2)c2c(cc(F)c3nc(-c4ccccc4)[nH]c32)c1=O

- MIC (Escherichia coli [8]): ≤ 0.018 mg/L
Structure (SMILES): CCn1cc(C(=O)O)c(=O)c2cc(F)c(N3CCN(CN4C(=O)C(=O)c5cc(Cl)ccc54)CC3)cc21

- MIC (Escherichia coli [1]): 0.008 mg/L (≈ 0.0172 µM)
- MIC (Escherichia coli [2]): 1 mg/L (≈ 2.15 µM)
- MIC (Escherichia coli [3]): 0.008 mg/L (≈ 0.0172 µM)
- MIC (Escherichia coli [4]): 1 mg/L (≈ 2.15 µM)
Structure (SMILES): CC1(N)CN(c2c(F)cc3c(=O)c(C(=O)O)cn(-c4cc(N)c(F)cc4CO)c3c2Cl)C1

- MIC (Escherichia coli [7]): > 3 mg/L
Structure (SMILES): Cc1ccc(-c2nc3c(F)cc4c(=O)c(C(=O)O)cn(C5CC5)c4c3[nH]2)cc1

- MIC (Escherichia coli [9]): 0.02 mg/L (≈ 0.0569 µM)
Structure (SMILES): CCn1cc(C(=O)O)c(=O)c2cc(F)c(N3CCNC(C)C3)c(F)c21 (stereo not given) [LOMEFLOXACIN]

- MIC (Escherichia coli [7]): > 3 mg/L
Structure (SMILES): O=C(O)c1cn(C2CC2)c2c(cc(F)c3nc(-c4ccsc4)[nH]c32)c1=O

- MIC (Escherichia coli [10]): 25 mg/L (≈ 47 µM)
Structure (SMILES): Cn1c(=O)cc(OCc2nn(CN3CCN(c4cccc(C(F)(F)F)c4)CC3)c(=S)o2)c2ccccc21

- MIC (Escherichia coli [10]): 25 mg/L (≈ 50.2 µM)
Structure (SMILES): Cn1c(=O)cc(OCc2nn(CN3CCN(c4ccc(F)cc4)CC3)c(=S)s2)c2ccccc21

- MIC (Escherichia coli [9]): 0.0763 mg/L (≈ 0.102 µM)
Structure (SMILES): CCn1cc(C(=O)O)c(=O)c2cc(F)c(N3CCN(CN4C(=O)/C(=N\c5ncc(Cc6cc(OC)c(OC)c(OC)c6)c(N)n5)c5ccccc54)CC3)cc21

Structure (SMILES): Cn1c(=O)c(C(=O)/C=C/c2ccco2)c(O)c2ccccc21
- diameter of the inhibition zone (DIZ) (Escherichia coli [11]): 7 mm

- MIC (Escherichia coli [1]): 0.008 mg/L (≈ 0.0167 µM)
- MIC (Escherichia coli [2]): 1 mg/L (≈ 2.09 µM)
- MIC (Escherichia coli [3]): 0.008 mg/L (≈ 0.0167 µM)
- MIC (Escherichia coli [4]): 1 mg/L (≈ 2.09 µM)
Structure (SMILES): CNC1(C)CN(c2c(F)cc3c(=O)c(C(=O)O)cn(-c4cc(N)c(F)cc4CO)c3c2Cl)C1

- MIC (Escherichia coli [7]): > 3 mg/L
Structure (SMILES): O=C(O)c1cn(C2CC2)c2c(cc(F)c3nc(-c4cccs4)[nH]c32)c1=O

- MIC (Escherichia coli [12]): ≥ 0.5 mg/L
Structure (SMILES): CC(=O)NC[C@H]1CN(c2ccc(N3CCN(c4nc5c(cc4F)c(=O)c(C(=O)O)cn5C4CC4)CC3)c(F)c2)C(=O)O1

- MIC (Escherichia coli [7]): > 3 mg/L
Structure (SMILES): O=C(O)c1cn(C2CC2)c2c(cc(F)c3nc(-c4ccccn4)[nH]c32)c1=O

Structure (SMILES): O=c1[nH]c2ccc(Cl)cc2c2c1cnn2Cc1ccccc1
- diameter of the inhibition zone (DIZ) (Escherichia coli [11]): 7 mm

Structure (SMILES): CCn1c(=O)c(C(=O)/C=C/c2ccsc2)c(O)c2ccccc21
- diameter of the inhibition zone (DIZ) (Escherichia coli [11]): 7 mm

- MIC (Escherichia coli [10]): 25 mg/L (≈ 49.1 µM)
Structure (SMILES): COc1ccc(N2CCN(Cn3nc(COc4cc(=O)n(C)c5ccccc45)sc3=S)CC2)cc1

Structure (SMILES): CCn1c(=O)c(C(=O)/C=C/c2cccs2)c(O)c2ccccc21
- diameter of the inhibition zone (DIZ) (Escherichia coli [11]): 7 mm

- MIC (Escherichia coli [13]): > 6.25 mg/L
Structure (SMILES): CCn1cc(C(=O)O)c(=O)c2cc(F)c(-n3cc(CO[C@H]4OC[C@@H](OC(C)=O)[C@@H](OC(C)=O)[C@H]4OC(C)=O)nn3)c(F)c21

- MIC (Escherichia coli [6]): 8.97 mg/L (≈ 41.3 µM)
Structure (SMILES): Cc1[nH]c2ccccc2c(=O)c1CC(=O)O

- MIC (Escherichia coli [6]): 8.97 mg/L (≈ 38.8 µM)
Structure (SMILES): Cc1ccc2[nH]c(C)c(CC(=O)O)c(=O)c2c1

- MIC (Escherichia coli [10]): 25 mg/L (≈ 45.7 µM)
Structure (SMILES): Cn1c(=O)cc(OCc2nn(CN3CCN(c4ccc(C(F)(F)F)cc4)CC3)c(=S)s2)c2ccccc21

- MIC (Escherichia coli [13]): > 6.25 mg/L
Structure (SMILES): CCn1cc(C(=O)O)c(=O)c2cc(F)c(-n3cc(CO[C@H]4OC[C@@H](OC(C)=O)[C@@H](OC(C)=O)[C@@H]4OC(C)=O)nn3)c(F)c21

- MIC (Escherichia coli [1]): 0.008 mg/L (≈ 0.0172 µM)
- MIC (Escherichia coli [2]): 2 mg/L (≈ 4.3 µM)
- MIC (Escherichia coli [3]): 0.008 mg/L (≈ 0.0172 µM)
- MIC (Escherichia coli [4]): 2 mg/L (≈ 4.3 µM)
Structure (SMILES): CNC1CN(c2c(F)cc3c(=O)c(C(=O)O)cn(-c4cc(N)c(F)cc4CO)c3c2Cl)C1

- MIC (Escherichia coli [7]): > 3 mg/L
Structure (SMILES): O=C(O)c1cn(C2CC2)c2c(cc(F)c3nc(-c4ccco4)[nH]c32)c1=O

- MIC (Escherichia coli [9]): 0.305 mg/L (≈ 0.39 µM)
Structure (SMILES): CCn1cc(C(=O)O)c(=O)c2cc(F)c(N3CCN(CN4C(=O)/C(=N\c5ncc(Cc6cc(OC)c(OC)c(OC)c6)c(N)n5)c5ccccc54)C(C)C3)c(F)c21 (stereo not given)

- MIC (Escherichia coli [9]): 0.0095 mg/L (≈ 0.0125 µM)
Structure (SMILES): COc1cc(Cc2cnc(/N=C3\C(=O)N(CN4CCN(c5cc6c(cc5F)c(=O)c(C(=O)O)cn6C5CC5)CC4)c4ccccc43)nc2N)cc(OC)c1OC

- MIC (Escherichia coli [13]): > 6.25 mg/L
Structure (SMILES): CCn1cc(C(=O)O)c(=O)c2cc(F)c(-n3cc(CO[C@H]4O[C@@H](C)[C@H](OC(C)=O)[C@@H](OC(C)=O)[C@H]4OC(C)=O)nn3)c(F)c21

- MIC (Escherichia coli [6]): 8.97 mg/L (≈ 34.2 µM)
Structure (SMILES): Cc1[nH]c2ccc([N+](=O)[O-])cc2c(=O)c1CC(=O)O

- MIC (Escherichia coli [13]): > 6.25 mg/L
Structure (SMILES): CCn1cc(C(=O)O)c(=O)c2cc(F)c(-n3cc(CO[C@H]4OC[C@@H](OC(C)=O)[C@H](OC(C)=O)[C@H]4OC(C)=O)nn3)c(F)c21

Structure (SMILES): O=c1[nH]c2ccccc2c2c1cnn2Cc1ccccc1
- diameter of the inhibition zone (DIZ) (Escherichia coli [11]): 7 mm
